Assay results published in PMC6976638, “Screening of natural compounds that targets glutamate racemase of Mycobacterium tuberculosis reveals the anti-tubercular potential of flavonoids” (Scientific Reports, 2020).

Legend:
[1] = molecular target: Glutamate racemase (MTB-MurI) (Mycobacterium tuberculosis, UniProt P9WPW9); assay: GDH-coupled racemization assay (A340), Lineweaver-Burk and Dixon plots; […]; assay type: biochemical
N[C@H](CCC(=O)O)C(=O)O = assay: purified protein; details: substrate binding site; Cys75 and Cys185 catalytic residues

Sequence of Glutamate racemase (MTB-MurI) (P9WPW9 whole entry, looked up): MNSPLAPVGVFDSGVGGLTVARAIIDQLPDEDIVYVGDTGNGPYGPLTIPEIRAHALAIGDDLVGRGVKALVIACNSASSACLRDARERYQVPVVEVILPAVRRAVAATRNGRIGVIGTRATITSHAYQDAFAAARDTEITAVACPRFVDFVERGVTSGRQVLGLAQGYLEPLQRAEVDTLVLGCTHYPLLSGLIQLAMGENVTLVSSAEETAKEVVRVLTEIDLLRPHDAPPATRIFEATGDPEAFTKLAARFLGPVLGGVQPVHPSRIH

Compound	Ki [1] [µM]	Km (N[C@H](CCC(=O)O)C(=O)O) [µM]
O=C1C[C@@H](c2ccc(O)cc2)Oc2cc(O)cc(O)c21 [naringenin]	23.8	
O=c1c(O)c(-c2ccc(O)c(O)c2)oc2cc(O)cc(O)c12 [quercetin]	20.8	
Glutamate racemase (MTB-MurI) (Mycobacterium tuberculosis H37Rv)		499
